The source of these data is publication PMC5624897, “Identification of isoliquiritigenin as an activator that stimulates the enzymatic production of glycyrrhetinic acid monoglucuronide” (Scientific Reports, 2017).

SMILES strings stand for the structures.

This assay relates to T1, β-glucuronidase from P. purpurogenum Li-3 (PGUS).
T1 construct: native enzyme from mycelia of the fungus grown on GL; crude extract for kinetics, or ammonium sulfate and DEAE-cellulose
Kind of assay: HPLC of GAMG formed; double reciprocal plot. In kind it is biochemical, Talaromyces purpureogenus. The note with it: control without ISL; crude β-glucuronidase solution, 2 h, 40 °C, sodium acetate buffer pH 5.0. An excerpt: HPLC of GAMG formed; double reciprocal plot on β-glucuronidase from P. purpurogenum Li-3 (PGUS)

The compound `CC1(C)[C@@H](O[C@H]2O[C@H](C(=O)O)[C@@H](O)[C@H](O)[C@H]2O[C@@H]2O[C@H](C(=O)O)[C@@H](O)[C@H](O)[C@H]2O)CC[C@]2(C)[C@H]3C(=O)C=C4[C@@H]5C[C@@](C)(C(=O)O)CC[C@]5(C)CC[C@@]4(C)[C@]3(C)CC[C@@H]12` [GL, glycyrrhizin] showed a K m of 410 µM.
